Reference: US20240158446A1, “CYCLIC COMPOUND HAVING SELECTIVE INHIBITORY ACTION ON KRAS OVER HRAS AND NRAS” (CHUGAI SEIYAKU KABUSHIKI KAISHA, priority 2021, published 2024)
*1 amine or outer side, *2 acyl side, *3 side chain or, on linkers, in order; H or OH if unused. Where a SMILES comes first, the peptide text is derived from it. Bridges are numbered along the chain shown (N, C = ends). [ ]: non-standard residue; d: D form. The star is where a group is joined. hPhe(3-Cl-4-CF3) = N[C@@H](CCc1ccc(C(F)(F)F)c(Cl)c1)C(=O)O; NPrPhe(4-CF3) = CCCN[C@@H](Cc1ccc(C(F)(F)F)cc1)C(=O)O; NEtPhe(4-CF3) = CCN[C@@H](Cc1ccc(C(F)(F)F)cc1)C(=O)O; hPhe(3,4-Cl2) = N[C@@H](CCc1ccc(Cl)c(Cl)c1)C(=O)O; X43 = CCCN([C@@H](Cc1ccccc1)C(=O)[*:2])[*:1]; NMeGly(cPent) = CN[C@H](C(=O)O)C1CCCC1; Hyp = O=C(O)[C@@H]1C[C@@H](O)CN1; NMeD = CN[C@@H](CC(=O)O)C(=O)O; NMeL = CN[C@@H](CC(C)C)C(=O)O; Morpholide = C1CN(*)CCO1; NMeA = CN[C@@H](C)C(=O)O; Ac5c = NC1(C(=O)O)CCCC1; Aze = O=C(O)[C@@H]1CCN1; Sar = CNCC(=O)O

Assays:
[1] = molecular target: GDP-bound KRAS wild-type protein (Homo sapiens, UniProt P01116); test: Binding to KRAS by surface plasmon resonance (SPR), Single Cycle Kinetics; conditions: SPR Single Cycle Kinetics, GDP-bound KRAS wild-type protein, 1:1 binding model; read-out: KRAS KD
[2] = molecular target: GDP-bound NRAS wild-type protein (Homo sapiens, UniProt P01111); test: Binding to NRAS by surface plasmon resonance (SPR), Single Cycle Kinetics; conditions: for NRAS/KRAS (ratio of KD value with respect to NRAS to KD value with respect to KRAS) / NRAS/KRAS (ratio of KD value for NRAS to KD value for KRAS): SPR, GDP-bound NRAS wild-type protein vs GDP-bound KRAS wild-type protein
[3] = molecular target: GDP-bound HRAS wild-type protein (Homo sapiens, UniProt P01112); test: Binding to HRAS by surface plasmon resonance (SPR), Single Cycle Kinetics; conditions: for HRAS/KRAS (ratio of KD value with respect to HRAS to KD value with respect to KRAS) / HRAS/KRAS (ratio of KD value for HRAS to KD value for KRAS): SPR, GDP-bound HRAS wild-type protein vs GDP-bound KRAS wild-type protein
Sequence of GDP-bound HRAS wild-type protein (P01112 whole entry): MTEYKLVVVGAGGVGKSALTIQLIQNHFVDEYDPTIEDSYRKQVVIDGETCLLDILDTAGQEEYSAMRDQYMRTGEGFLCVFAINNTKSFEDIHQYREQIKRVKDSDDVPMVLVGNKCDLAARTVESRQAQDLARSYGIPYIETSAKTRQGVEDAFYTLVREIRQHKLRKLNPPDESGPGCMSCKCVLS

Sequence of GDP-bound KRAS wild-type protein (P01116 whole entry): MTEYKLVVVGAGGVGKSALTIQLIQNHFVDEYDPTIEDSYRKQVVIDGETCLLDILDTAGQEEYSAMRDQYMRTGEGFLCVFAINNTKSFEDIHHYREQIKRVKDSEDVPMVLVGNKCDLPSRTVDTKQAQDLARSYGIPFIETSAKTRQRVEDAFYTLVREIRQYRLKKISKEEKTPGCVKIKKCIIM
Sequence of GDP-bound NRAS wild-type protein (P01111 whole entry): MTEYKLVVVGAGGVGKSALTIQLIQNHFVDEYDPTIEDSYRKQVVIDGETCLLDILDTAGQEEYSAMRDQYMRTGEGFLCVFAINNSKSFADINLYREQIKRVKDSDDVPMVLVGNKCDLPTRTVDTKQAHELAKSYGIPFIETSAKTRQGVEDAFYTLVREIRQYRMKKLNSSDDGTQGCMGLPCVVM

Row | Kd [1] | Structure (SMILES) | NRAS/KRAS (ratio of KD value with respect to NRAS to KD value with respect to KRAS) [2] | HRAS/KRAS (ratio of KD value with respect to HRAS to KD value with respect to KRAS) [3] | NRAS/KRAS (ratio of KD value for NRAS to KD value for KRAS) [2] | HRAS/KRAS (ratio of KD value for HRAS to KD value for KRAS) [3] | NRAS/KRAS (ratio of KD value with respect to GDP-bound NRAS wild-type protein to KD value with respect to KRAS) ([2]; SPR KD ratio NRAS/KRAS, class symbols) | HRAS/KRAS (ratio of KD value with respect to GDP-bound HRAS wild-type protein to KD value with respect to KRAS) ([3]; SPR KD ratio HRAS/KRAS, class symbols)
1 | 0.34 nM | CC[C@H](C)[C@@H]1NC(=O)[C@H](CC)N(C)C(=O)C[C@@H](C(=O)N(C)C)N(CC)C(=O)[C@H](C2CCCC2)N(C)C(=O)C2(CCC2)NC(=O)[C@@H]2CCCCN2C(=O)[C@H](CCc2cc(F)c(C(F)(F)F)c(F)c2)NC(=O)CN(C)C(=O)[C@H](Cc2ccc(C(F)(F)F)cc2)N2CCCC[C@@H](C2=O)N(C)C(=O)CN(C)C1=O [PP0661] | C (A compound having a KD ratio of 0.1 or more and less than 3 is denoted as C) | B (a compound having 3 or more and less than 10 is denoted as B) | – | – | – | –
2 | 0.28 nM | CCCN1C(=O)[C@@H]2CCN2C(=O)[C@H](C)N(C)C(=O)[C@H]([C@@H](C)CC)NC(=O)[C@H](CC(C)C)N(C)C(=O)C[C@@H](C(=O)N2CCOCC2)N(C)C(=O)[C@H](C2CCCC2)N(C)C(=O)C2(CCCC2)NC(=O)[C@@H]2CCCN2C(=O)[C@H](CCc2ccc(C(F)(F)F)c(Cl)c2)NC(=O)CN(C)C(=O)[C@@H]1Cc1ccccc1 [PP0216] ([NMeL]I[NMeA][Aze][X43][Sar][hPhe(3-Cl-4-CF3)]P[Ac5c][NMeGly(cPent)][NMeD]-Morpholide; lactam N-11) | – | – | C (A compound having a KD ratio of 0.1 or more and less than 3 is denoted as C) | B (a compound having 3 or more and less than 10 is denoted as B) | – | –
3 | 0.7 nM | CCCN1C(=O)CN(C)C(=O)[C@@H]2CCN2C(=O)[C@H]([C@@H](C)CC)NC(=O)[C@H](CC(C)C)N(C)C(=O)C[C@@H](C(=O)N(C)C)NC(=O)[C@H](C2CCCC2)N(C)C(=O)C2(CCCC2)NC(=O)[C@@H]2C[C@@H](OCC)CN2C(=O)[C@H](CCc2ccc(C(F)(F)F)c(Cl)c2)NC(=O)CN(C)C(=O)[C@@H]1Cc1ccc(C(F)(F)F)cc1 [PP0377] ([NMeL]I[Aze][Sar][NPrPhe(4-CF3)][Sar][hPhe(3-Cl-4-CF3)][Hyp](Et)[Ac5c][NMeGly(cPent)]D-NMe2; lactam N-11) | – | – | B (a compound having 3 or more and less than 10 is denoted as B) | C (A compound having a KD ratio of 0.1 or more and less than 3 is denoted as C) | – | –
4 | 0.4 nM | CC[C@H](C)[C@@H]1NC(=O)[C@H](CC(C)C)N(C)C(=O)C[C@@H](C(=O)N2CCOCC2)N(C)C(=O)[C@H](C2CCCC2)N(C)C(=O)C2(CCCC2)NC(=O)[C@@H]2CCCN2C(=O)[C@H](CCc2ccc(Cl)c(Cl)c2)NC(=O)CN(C)C(=O)[C@H](Cc2ccc(C(F)(F)F)cc2)N(CC)C(=O)[C@@H]2CCN2C(=O)[C@H](C)N(C)C1=O [PP0223] ([NMeL]I[NMeA][Aze][NEtPhe(4-CF3)][Sar][hPhe(3,4-Cl2)]P[Ac5c][NMeGly(cPent)][NMeD]-Morpholide; lactam N-11) | – | – | C (A compound having a KD ratio of 0.1 or more and less than 3 is denoted as C) | C (A compound having a KD ratio of 0.1 or more and less than 3 is denoted as C) | – | –
5 | 0.47 nM | CCC(CC)[C@H]1C(=O)N(C)[C@H](C(=O)N(C)C)CC(=O)N(C)[C@@H](COC)C(=O)N[C@@H]([C@@H](C)CC)C(=O)N(C)CC(=O)N(C)[C@H]2C/C=C\CCN(C2=O)[C@@H](Cc2ccc(C(F)(F)F)cc2)C(=O)N(C)CC(=O)N[C@@H](CCc2ccc(C(F)(F)F)c(Cl)c2)C(=O)N2CC3(CC3)C[C@H]2C(=O)NC2(CC(C)(C)C2)C(=O)N1C [PP2965] | – | – | – | – | AA (a compound having 20 or more is denoted as AA) | A (a compound having 10 or more and less than 20 is denoted as A)
6 | 0.49 nM | CC[C@H](C)[C@@H]1NC(=O)[C@H](CC(C)C)N(C)C(=O)C[C@@H](C(=O)N2CCOCC2)N(C)C(=O)[C@H](C2CCCC2)N(C)C(=O)C2(CCCC2)NC(=O)[C@@H]2CCCN2C(=O)[C@H](CCc2ccc(C(F)(F)F)c(Cl)c2)NC(=O)CN(C)C(=O)[C@H](Cc2ccc(C)cc2)N2CC/C=C\C[C@@H](C2=O)N(C)C(=O)CN(C)C1=O [PP0461] | A (a compound having 10 or more and less than 20 is denoted as A) | A (a compound having 10 or more and less than 20 is denoted as A) | – | – | – | –
